In US20160221974A1, “SODIUM CHANNEL MODULATORS FOR THE TREATMENT OF PAIN AND DIABETES” (CHROMOCELL CORPORATION, priority 2013, published 2016):

How the values were obtained:
[1] = target: T1, NaV1.7 (Homo sapiens, UniProt Q15858); experiment: Patchliner Electrophysiological In-Vitro Assay (NaV1.7); format: cell-based; settings: Patchliner patch clamp, HEK293, holding at V1/2
T1 construct: expressed in transfected cells
How it was run: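 Automated whole-cell patch clamp at room temperature on HEK293 cells stably expressing hNav1.7 with β1 and β2 subunits. Inactivated-state Ki: cells held at their own V1/2, stepped to −120 mV for 5–10 ms, then to Vmax for 10–20 ms, repeated every 10 s; dose-dependent inhibition analysed.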

[2] = target: T2, NaV1.5 (Homo sapiens, UniProt Q14524); experiment: Patchliner Electrophysiological In-Vitro Assay (NaV1.5); format: cell-based; settings: Patchliner patch clamp, HEK293
T2 construct: expressed in transfected cells
T2 sequence (Q14524 whole entry): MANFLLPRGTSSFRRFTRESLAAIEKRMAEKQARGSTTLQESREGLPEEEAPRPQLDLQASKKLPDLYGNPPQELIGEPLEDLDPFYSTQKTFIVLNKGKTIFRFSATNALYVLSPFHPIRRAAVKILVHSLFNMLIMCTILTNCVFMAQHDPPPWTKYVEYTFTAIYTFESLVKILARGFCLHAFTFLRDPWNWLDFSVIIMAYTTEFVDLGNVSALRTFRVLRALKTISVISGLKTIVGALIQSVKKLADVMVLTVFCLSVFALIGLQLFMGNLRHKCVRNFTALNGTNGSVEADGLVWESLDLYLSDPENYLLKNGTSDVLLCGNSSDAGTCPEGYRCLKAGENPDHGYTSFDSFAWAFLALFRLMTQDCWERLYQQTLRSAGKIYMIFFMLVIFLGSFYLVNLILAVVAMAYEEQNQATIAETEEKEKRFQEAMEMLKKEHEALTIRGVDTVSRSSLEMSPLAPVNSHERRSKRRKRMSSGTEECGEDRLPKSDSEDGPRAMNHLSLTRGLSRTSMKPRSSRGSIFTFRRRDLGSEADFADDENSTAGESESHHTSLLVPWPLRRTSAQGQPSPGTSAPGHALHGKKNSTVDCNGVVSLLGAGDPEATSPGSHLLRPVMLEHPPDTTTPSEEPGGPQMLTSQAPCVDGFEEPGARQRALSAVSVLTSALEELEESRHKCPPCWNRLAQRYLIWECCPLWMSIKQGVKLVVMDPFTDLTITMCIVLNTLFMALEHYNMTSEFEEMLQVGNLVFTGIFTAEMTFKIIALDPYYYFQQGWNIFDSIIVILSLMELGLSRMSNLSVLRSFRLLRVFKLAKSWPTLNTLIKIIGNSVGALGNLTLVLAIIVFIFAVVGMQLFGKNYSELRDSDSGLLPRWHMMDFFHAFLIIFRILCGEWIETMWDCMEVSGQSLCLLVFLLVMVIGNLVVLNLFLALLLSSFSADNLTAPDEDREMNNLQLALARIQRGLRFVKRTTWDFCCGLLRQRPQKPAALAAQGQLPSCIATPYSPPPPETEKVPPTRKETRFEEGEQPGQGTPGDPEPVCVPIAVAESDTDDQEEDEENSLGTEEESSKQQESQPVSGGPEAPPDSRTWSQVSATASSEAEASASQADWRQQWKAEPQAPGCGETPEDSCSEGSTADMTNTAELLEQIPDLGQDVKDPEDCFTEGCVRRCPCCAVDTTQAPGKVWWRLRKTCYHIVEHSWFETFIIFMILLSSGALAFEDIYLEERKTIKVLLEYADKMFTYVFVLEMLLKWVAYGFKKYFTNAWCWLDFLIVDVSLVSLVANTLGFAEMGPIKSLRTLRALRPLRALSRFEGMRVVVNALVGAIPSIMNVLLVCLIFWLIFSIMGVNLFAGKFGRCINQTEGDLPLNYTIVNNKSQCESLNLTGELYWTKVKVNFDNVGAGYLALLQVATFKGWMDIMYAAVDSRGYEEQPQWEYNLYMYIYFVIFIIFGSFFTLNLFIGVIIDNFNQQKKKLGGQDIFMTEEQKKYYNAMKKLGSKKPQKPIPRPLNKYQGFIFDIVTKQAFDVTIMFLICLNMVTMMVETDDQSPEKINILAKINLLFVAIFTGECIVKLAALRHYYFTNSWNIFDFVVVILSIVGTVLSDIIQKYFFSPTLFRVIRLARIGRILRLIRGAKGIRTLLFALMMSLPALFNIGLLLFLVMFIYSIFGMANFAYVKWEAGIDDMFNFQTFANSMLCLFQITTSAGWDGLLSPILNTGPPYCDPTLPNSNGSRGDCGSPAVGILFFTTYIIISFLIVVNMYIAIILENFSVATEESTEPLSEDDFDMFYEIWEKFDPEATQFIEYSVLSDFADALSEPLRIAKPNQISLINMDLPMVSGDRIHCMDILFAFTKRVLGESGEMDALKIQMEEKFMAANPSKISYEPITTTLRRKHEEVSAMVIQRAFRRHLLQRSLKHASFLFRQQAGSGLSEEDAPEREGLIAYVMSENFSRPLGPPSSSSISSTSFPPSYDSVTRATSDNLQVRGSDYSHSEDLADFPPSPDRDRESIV
Method: The recording of sodium current from stable HEK293 cell lines expressing NaV1.7 or NaV1.5 was done on a Patchliner® instrument, Nanion Technologies. The Patchliner® is a fully automated bench-top patch clamp platform and can record simultaneously from up to eight single cells with GΩ seals.
For patch-clamp experiments, cells were grown under standard culturing conditions in Dulbecco's Modified Eagles medium supplemented with 10% fetal bovine serum, glutamine and HEPES. Cells were harvested and kept in suspension for up to 4 hours with no significant change in quality or ability to patch. Whole cell patch clamp recordings were conducted according to Nanion's standard procedure for the Patchliner®. Experiments were conducted at room temperature.
Voltage protocols were designed to establish: 1) peak current amplitude (Imax), 2) test potential (Vmax) and 3) half-inactivation potential (V1/2) for each of the eight individual cells. To determine V1/2, a standard steady-state inactivation protocol was executed using a series of fifteen 500 ms depolarizing pre-pulses in 10 mV increments (starting at −130 mV) and immediately followed by a 10 ms test pulse to Vmax. To estimate test compound affinity to the inactivated state of sodium channel (Ki), the holding potential for each cell was set automatically to the V1/2 calculated from a steady-state inactivation data. The current was activated with the following voltage protocol: holding at V1/2 for 2-5 seconds, return to the −120 mV for 5-10 ms to relieve fast inactivation, stepping to test potential (Vmax) for 10-20 ms. This voltage protocol was repeated every 10 seconds to establish the baseline with 2-3 buffer additions followed by the test compound addition. The dose-dependent inhibition was analyzed using Nanion's Data Analysis Package.

[3] = system: streptozotocin (STZ)-induced diabetic model; experiment: Streptozotocin (STZ)-Induced Model of Diabetic Neuropathy, behavioral tests; format: in vivo, male Sprague-Dawley rats; settings: 30 mg/kg, measured 30 minutes post dose
Method: 250-350 g male Sprague-Dawley rats from appropriate animal resources were used. Type I diabetes was induced by a single injection, (intraperitoneally, intravenously or intramuscularly) of 50-100 mg/kg of streptozotocin (STZ, Sigma Chemicals, St. Louis, Mo. or VWR) freshly dissolved in sodium citrate (0.01 M, pH 4.5). Sham animals were given either saline or same vehicle injection. Following a wait time of about two days, inducement of diabetes was confirmed in STZ-injected rats by measuring the plasma glucose concentrations in blood samples from the tail vein after a fast of 6 hours. […] Other parameters (water intake, food intake, and bodyweight) were monitored before the treatment with a test compound and after the cessation of the treatment.
The analgesic effect of the test compound was expressed as a percent recovery (% Recovery) relative to the sham control group baseline and calculated according to the formula: […]
Rats were placed on the glass surface of a thermal testing apparatus (Model 336, IITC/Life Science Instruments, Woodland Hills, Calif.) and were allowed to acclimate for 10 min before testing on the glass surface at room temperature. […] The paw withdrawal latency was recorded by a digital timer. The thermal threshold was determined as the mean withdrawal latency from two to three consecutive trials of both hindpaws. […]

T1 sequence (Q15858 whole entry): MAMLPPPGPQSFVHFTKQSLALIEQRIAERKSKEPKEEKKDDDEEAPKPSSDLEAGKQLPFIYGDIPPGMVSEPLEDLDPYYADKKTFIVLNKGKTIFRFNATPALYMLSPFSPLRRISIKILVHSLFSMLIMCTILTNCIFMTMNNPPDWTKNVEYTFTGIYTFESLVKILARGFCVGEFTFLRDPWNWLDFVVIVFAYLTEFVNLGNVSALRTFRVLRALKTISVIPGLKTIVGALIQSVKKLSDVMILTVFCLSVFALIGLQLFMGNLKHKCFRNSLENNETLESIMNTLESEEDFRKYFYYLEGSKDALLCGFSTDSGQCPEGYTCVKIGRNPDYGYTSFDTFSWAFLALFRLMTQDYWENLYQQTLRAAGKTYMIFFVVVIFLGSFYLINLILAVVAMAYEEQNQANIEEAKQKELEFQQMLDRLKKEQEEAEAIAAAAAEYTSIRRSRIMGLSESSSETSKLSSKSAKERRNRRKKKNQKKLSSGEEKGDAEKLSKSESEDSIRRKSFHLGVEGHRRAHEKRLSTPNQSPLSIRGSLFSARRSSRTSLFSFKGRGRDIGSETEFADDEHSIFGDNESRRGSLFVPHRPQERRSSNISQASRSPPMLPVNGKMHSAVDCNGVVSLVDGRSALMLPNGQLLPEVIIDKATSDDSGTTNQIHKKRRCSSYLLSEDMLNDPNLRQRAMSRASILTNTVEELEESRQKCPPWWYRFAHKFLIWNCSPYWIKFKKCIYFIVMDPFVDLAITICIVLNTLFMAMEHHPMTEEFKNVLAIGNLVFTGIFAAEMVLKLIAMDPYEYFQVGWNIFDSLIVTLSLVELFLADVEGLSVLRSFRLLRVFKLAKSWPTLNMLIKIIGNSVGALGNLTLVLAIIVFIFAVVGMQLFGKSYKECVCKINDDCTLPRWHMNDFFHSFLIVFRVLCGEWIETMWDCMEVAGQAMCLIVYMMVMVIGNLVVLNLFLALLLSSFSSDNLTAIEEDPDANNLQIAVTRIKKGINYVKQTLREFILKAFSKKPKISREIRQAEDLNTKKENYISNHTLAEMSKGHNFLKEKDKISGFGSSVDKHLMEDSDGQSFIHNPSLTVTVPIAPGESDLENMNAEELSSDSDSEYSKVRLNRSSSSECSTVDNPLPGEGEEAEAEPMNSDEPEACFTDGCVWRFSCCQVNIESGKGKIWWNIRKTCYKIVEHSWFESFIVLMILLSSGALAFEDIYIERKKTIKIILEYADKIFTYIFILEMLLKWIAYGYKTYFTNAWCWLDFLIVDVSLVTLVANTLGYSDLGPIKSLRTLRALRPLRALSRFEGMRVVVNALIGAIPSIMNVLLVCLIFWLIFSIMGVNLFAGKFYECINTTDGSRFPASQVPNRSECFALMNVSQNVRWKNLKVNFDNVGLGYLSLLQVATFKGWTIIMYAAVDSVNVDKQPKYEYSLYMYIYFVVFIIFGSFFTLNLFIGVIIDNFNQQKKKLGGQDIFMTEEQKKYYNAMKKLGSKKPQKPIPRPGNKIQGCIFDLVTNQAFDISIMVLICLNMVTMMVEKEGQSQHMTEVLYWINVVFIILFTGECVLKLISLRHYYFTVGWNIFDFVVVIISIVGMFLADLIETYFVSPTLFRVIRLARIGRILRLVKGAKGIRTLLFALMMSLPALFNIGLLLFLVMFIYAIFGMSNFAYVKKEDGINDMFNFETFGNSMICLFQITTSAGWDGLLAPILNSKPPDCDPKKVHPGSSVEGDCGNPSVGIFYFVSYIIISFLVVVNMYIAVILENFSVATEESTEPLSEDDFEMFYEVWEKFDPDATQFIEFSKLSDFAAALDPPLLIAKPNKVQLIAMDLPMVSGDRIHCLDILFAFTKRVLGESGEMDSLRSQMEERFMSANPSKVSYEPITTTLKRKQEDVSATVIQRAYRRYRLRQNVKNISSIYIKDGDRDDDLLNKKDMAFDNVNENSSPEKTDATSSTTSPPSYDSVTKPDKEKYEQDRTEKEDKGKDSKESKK
T1 sequence (Q07699 19-218 partner): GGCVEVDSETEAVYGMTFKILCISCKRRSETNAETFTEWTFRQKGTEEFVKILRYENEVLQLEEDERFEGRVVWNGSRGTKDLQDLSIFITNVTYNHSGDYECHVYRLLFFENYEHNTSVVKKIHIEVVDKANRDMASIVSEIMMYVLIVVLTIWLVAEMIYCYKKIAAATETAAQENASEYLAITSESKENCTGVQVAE
T1 sequence (O60939 30-215 partner): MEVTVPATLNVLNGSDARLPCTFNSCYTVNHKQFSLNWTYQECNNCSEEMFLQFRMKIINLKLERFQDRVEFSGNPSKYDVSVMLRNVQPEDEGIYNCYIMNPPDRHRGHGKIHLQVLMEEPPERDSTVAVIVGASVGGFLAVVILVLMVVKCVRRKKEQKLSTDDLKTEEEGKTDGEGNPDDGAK

NC(=O)CNCCCc1cc(Cl)ccc1Oc1cc(F)c(S(=O)(=O)Nc2cscn2)cc1Cl [Compound 49, 2-((3-(5-chloro-2-(2-chloro-5-fluoro-4-(N-(thiazol-4-yl)sulfamoyl)phenoxy)phenyl)propyl)amino)acetamide]
IC50 [1]: < 0.1 µM
IC50 [2]: > 10 µM
effect in the tactile allodynia test [3]: no significant effect
